From patent US20220402950A1, “SUBSTITUTED BENZIMIDAZOLES AS PAD4 INHIBITORS” (BRISTOL-MYERS SQUIBB COMPANY, priority 2018, published 2022)

target: human PAD4 (hPAD4) (Homo sapiens, UniProt Q9UM07); experiment: RFMS Human PAD4 Functional Assay; assay type: biochemical; details: hPAD4 RFMS IC50, human PAD4, rapid-fire mass spectrum (RFMS) assay; 5 nM hPAD4, 250 μM BAEE
Method: RFMS Human PAD4 Functional Assay:
Compounds were solubilized in 100% DMSO to achieve a 10 mM compound concentration. Compound stock solutions were stored at RT. A series of dilutions were prepared in DMSO and mixed 8 times with 20 μL mixing volume. Final top concentration of compound in the assay is 50 μM.
0.13 μL of compound solution was added to 13 μL of 10 nM PAD4 in assay buffer. After 30 min 13 μl of 500 μM of BAEE was added in 25 mM hepes, pH 7.5, 5 mM NaCl, 1 mM DTT, 0.2 mg/ml BSA, 0.01% CHAPS, 50 μM Calcium, 5 μM TPEN was added and the reaction incubated for 90 min at 37° C. The enzymatic reaction was quenched by addition of 15 μl of 6.1N TCA, 100% Final Concentration is 20%, 35 μl of 8.5 mM phenyl glyoxal (final concentration 4 mM) is then added and the reaction is incubated for 30 min at 37° C.
After 30 minutes the plates are spun down to remove all precipitate. The enzyme reaction was quenched with an equal volume of methanol containing internal standard (modified citrulline). Samples were loaded onto the Rapid Fire RF300 system (Agilent) wherein they were first sipped for 1000 ms and then directly loaded to a C18 separations cartridge using a mixture of acetonitrile containing 0.01% formic acid for 3000 ms desalting. The flow rate of the mobile phase was 1.5 ml/min.
The dwell time for each transition was set at 200 ms, and the ESI voltage was used at 5500 with a source temperature of 400° C. Extracted ion peaks for each transition were integrated using the Rapid Fire Integrator software. Peak area of analyte was normalized with internal standard.).

Chain of human PAD4 (hPAD4) (Q9UM07 whole entry): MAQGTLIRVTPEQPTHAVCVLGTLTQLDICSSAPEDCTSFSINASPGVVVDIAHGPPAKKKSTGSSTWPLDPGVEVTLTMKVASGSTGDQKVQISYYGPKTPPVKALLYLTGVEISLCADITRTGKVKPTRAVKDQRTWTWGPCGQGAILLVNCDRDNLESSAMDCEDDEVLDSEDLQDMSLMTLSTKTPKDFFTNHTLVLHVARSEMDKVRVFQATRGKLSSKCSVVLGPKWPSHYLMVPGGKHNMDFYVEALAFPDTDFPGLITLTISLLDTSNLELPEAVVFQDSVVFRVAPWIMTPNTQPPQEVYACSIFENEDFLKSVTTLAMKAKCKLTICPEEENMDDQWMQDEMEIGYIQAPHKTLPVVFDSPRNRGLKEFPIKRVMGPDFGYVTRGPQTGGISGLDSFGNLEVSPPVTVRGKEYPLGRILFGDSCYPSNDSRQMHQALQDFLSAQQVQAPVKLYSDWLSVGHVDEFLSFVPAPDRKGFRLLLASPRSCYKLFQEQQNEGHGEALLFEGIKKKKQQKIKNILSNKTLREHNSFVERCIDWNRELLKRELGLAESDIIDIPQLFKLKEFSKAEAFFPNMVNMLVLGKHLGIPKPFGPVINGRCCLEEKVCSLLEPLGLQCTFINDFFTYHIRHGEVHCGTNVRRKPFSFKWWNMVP

**Q.** How did the IC50 turn out when `COc1cc(C(=O)N2C[C@H]3CC[C@@H]2[C@@H]3N)cc2nc(-c3cc4cccc(C5CCN(C(=O)NC(C)C)CC5)c4n3CC3CC3)n(C)c12` [Example 252, 4-(2-(5-((1R,4R,7R)-7-amino-2-azabicyclo[2.2.1]heptane-2-carbonyl)-7-methoxy-1-methyl-1H-benzo[d]imidazol-2-yl)-1-(cyclopropylmethyl)-1H-indol-7-yl)-N-isopropylpiperidine-1-carboxamide] was run?
**A.** Its IC50 is 58 nM.

**Q.** With `COc1cc(C(=O)N2C[C@H]3CC[C@@H]2[C@@H]3N)cc2nc(-c3cc4cccc(-c5ccc6c(=O)[nH]ccc6c5)c4n3CC3CC3)n(C)c12` [Example 102, 6-(2-{5-[(1R,4R,7R)-7-amino-2-azabicyclo[2.2.1]heptane-2-carbonyl]-7-methoxy-1-methyl-1H-1,3-benzodiazol-2-yl}-1-(cyclopropylmethyl)-1H-indol-7-yl)-1,2-dihydroisoquinolin-1-one] as the compound, how does the IC50 read?
**A.** Its IC50 is 131 nM.

**Q.** For `COc1cc(C(=O)N2C[C@H](N)C[C@@H](F)C2)cc2nc(-c3cc4cccc(C5CC(C(=O)N(C)C)C5)c4n3CC3CC3)n(C)c12` (single isomer, unassigned) [Example 118], which IC50 is on record?
**A.** The IC50 was 278 nM.

**Q.** With `COc1cc(C(=O)N2C[C@H]3CC[C@@H]2[C@@H]3N)cc2nc(-c3cc4cccc(-c5cn(CC(C)(C)O)nc5C)c4n3CC3CC3)n(C)c12` [Example 139, ((1R,4R,7R)-7-amino-2-azabicyclo[2.2.1]heptan-2-yl)(2-(1-(cyclopropylmethyl)-7-(1-(2-hydroxy-2-methylpropyl)-3-methyl-1H-pyrazol-4-yl)-1H-indol-2-yl)-7-methoxy-1-methyl-1H-benzo[d]imidazol-5-yl)methanone] as the compound, how does the IC50 read?
**A.** The IC50 was 180 nM.

**Q.** With `COc1cc(C(=O)N2CC3CCC2[C@@H]3N)cc2nc(-c3cc4cccc(-c5cccc(CO)c5)c4n3CC3CC3)n(C)c12` (stereo partly drawn) [Example 136, ((7R)-7-amino-2-azabicyclo[2.2.1]heptan-2-yl)(2-(1-(cyclopropylmethyl)-7-(3-(hydroxymethyl)phenyl)-1H-indol-2-yl)-7-methoxy-1-methyl-1H-benzo[d]imidazol-5-yl)methanone] as the compound, how does the IC50 read?
**A.** The IC50 was 77 nM.

**Q.** `COc1cc(C(=O)N2C[C@H]3CC[C@@H]2[C@@H]3N)cc2nc(-c3cc4cccc(Nc5cnn(CC(F)F)c5)c4n3CC3CC3)n(C)c12` [Example 175, ((1R,4R,7R)-7-amino-2-azabicyclo[2.2.1]heptan-2-yl)(2-(1-(cyclopropylmethyl)-7-((1-(2,2-difluoroethyl)-1H-pyrazol-4-yl)amino)-1H-indol-2-yl)-7-methoxy-1-methyl-1H-benzo[d]imidazol-5-yl)methanone] was tested. Which IC50 did it give?
**A.** Its IC50 is 66 nM.

**Q.** How did the IC50 turn out when `C=CC(=O)Nc1cccc(-c2cccc3cc(-c4nc5cc(C(=O)N6C[C@H]7CC[C@@H]6[C@@H]7N)cc(OC)c5n4C)n(CC4CC4)c23)c1` [Example 88, N-[3-(2-{5-[(1R,4R,7R)-7-amino-2-azabicyclo[2.2.1]heptane-2-carbonyl]-7-methoxy-1-methyl-1H-1,3-benzodiazol-2-yl}-1-(cyclopropylmethyl)-1H-indol-7-yl)phenyl]prop-2-enamide] was run?
**A.** The IC50 was 56 nM.

**Q.** For `COc1cc(C(=O)N2C[C@H]3CC[C@@H]2[C@@H]3N)cc2nc(-c3cc4cccc(CCCCCCN)c4n3CC3CC3)n(C)c12` [Example 17, (1R,4R,7R)-2-{2-[7-(6-aminohexyl)-1-(cyclopropylmethyl)-1H-indol-2-yl]-7-methoxy-1-methyl-1H-1,3-benzodiazole-5-carbonyl}-2-azabicyclo[2.2.1]heptan-7-amine], which IC50 is on record?
**A.** The IC50 was 56 nM.

same assay, conditions: human PAD4, rapid-fire mass spectrum (RFMS) assay; 5 nM hPAD4, 250 μM BAEE; read-out: hPAD4 RFMS IC50

**Q.** How did the IC50 turn out when `COc1cc(C(=O)N2C[C@H]3CC[C@@H]2[C@@H]3N)cc2nc(-c3cc4cccc(NC5CCNCC5)c4n3CC3CC3)n(C)c12` [Example 158, ((1R,4R,7R)-7-amino-2-azabicyclo[2.2.1]heptan-2-yl)(2-(1-(cyclopropylmethyl)-7-(piperidin-4-ylamino)-1H-indol-2-yl)-7-methoxy-1-methyl-1H-benzo[d]imidazol-5-yl)methanone] was run?
**A.** The IC50 was 69 nM.

**Q.** Which IC50 does the source give for `COc1cc(C(=O)N2C[C@H]3CC[C@@H]2[C@@H]3N)cc2nc(-c3cc4cccc(C5CC(NC(C)=O)C5)c4n3CC3CC3)n(C)c12` (single isomer, unassigned) [Example 58] here?
**A.** The IC50 was 75 nM.
